This note sets out measurements from US7560591B2, “Benzamidine derivatives having anti-inflammatory and immunosuppressive activity” (Rotta Research Laboratorium S.p.A., priority 2001, dated 2009).

The structures appear in SMILES notation.

One data set concerns formation of PGE2. The data set can be described thus: Inhibition of PGE2 formation in rabbit joint chondrocytes stimulated by IL-1β (RIA). In kind it is cell-based. The conditions noted are these: Oryctolagus cuniculus, Chondrocyte, IL-1β 1 ng/ml, 48 hours. As to the method: (§1) a) The activity in inhibiting the formation of NO, measured as NO2^− (nitrites), PGE2, and neutral protease, was investigated in vitro on culture broths of rabbit joint chondrocytes stimulated by cytokine IL-1β (1 ng/ml) for 48 hours. For the preparation of the chondrocytes, the method described by Berenbaum et al [FEBS Letters 340, 51-55 (1994)] was followed. Briefly, fragments of cartilage removed under sterile conditions from the heads of rabbit shoulder, hip and knee joints were chopped finely and digested at 37° C. by hyaluronidase, trypsin and collagenase solutions, giving rise, after filtration on sterile gauze and centrifuging at 600×g and suitable dilution with 10% DMEM-FCS, to a concentration of approximately 1×10^5 cells per well. The cells were kept in these conditions until confluence (about 15 days), the broth being changed every 3 days. At this point, the products under test, dissolved in the medium, were added to each test sample and, after 20 minutes, 350 μl IL-1β was added in order to have a final concentration of 1 ng/ml. The duration of the stimulation was 48 hours at 37° C. (incubation air-CO2 7%). Measurement of the nitrites, as described by Green et al. [Anal. Biochem. 126, 131-138 (1982)], and of the PGE2s by RIA measurement, was then performed on the cell supernatant fluid. The measurement of the neutral proteases was performed in the cell supernatant fluid containing the p-aminophenyl mercury acetate (APMA) activator with the use of azocoll as the substrate and with incubation at 37° C. for 17 h as described by Chavira et al. [Anal. Biochem. 136, 446-450 (1984)]. In order to evaluate the direct inhibitory effect of the compounds under test on the hydrolytic activity of the cell supernatant fluid, they were added to the supernatant fluid containing the proteases induced by IL-1β and already activated by AMPA.
(§2) The results obtained are shown in Table 3, in which the IC50, that is, the concentration (micromolar) of antagonist which can inhibit the formation of nitrites, PGE2s, and neutral proteases, respectively, by 50% relative to the control group, that is, to the cells stimulated with IL-1β but without the addition of antagonists, is given for some of the compounds of the invention already given by way of example in Table 2.

The subject of data set [1] is formation of NO, measured as NO2− (nitrites). Description: Inhibition of NO (nitrite) formation in rabbit joint chondrocytes stimulated by IL-1β. In kind it is cell-based. The conditions noted are these: Oryctolagus cuniculus, Chondrocyte, IL-1β 1 ng/ml, 48 hours, NO determined as nitrites. As to the method: as §1, §2
The test system of data set [2] is neutral proteases (metalloproteases). Description: Inhibition of neutral proteases (metalloproteases) in supernatant of IL-1β-stimulated rabbit joint chondrocytes, azocoll substrate. The note with it: IL-1β 1 ng/ml, 48 hours, APMA-activated supernatant, read-out: MP (metalloproteases) IC50. In kind it is biochemical. As to the method: as §1, §2

In the case of `CCCNC(=S)Nc1ccc(NC(C)=N)cc1` [Compound I-2], the melting point was 188.1 to 189.1 °C. This compound also showed an IC50 in the data set with formation of PGE2 of over 300 µM. The compound further gave an IC50 in data set [1] of over 300 µM. In addition, the 50% inhibitory concentration (IC50) in data set [2] came out at 30 µM.
With `CCCCCCCNC(=S)Nc1ccc(NC(C)=N)cc1` [Compound I-6], the melting point was 177.8 to 178.4 °C. Besides, in the data set on formation of PGE2, the IC50 was determined as 20 µM. In data set [1], the IC50 was 30 µM. Further, the IC50 in data set [2] worked out at 20 µM.
